The assay relates to CEM cells HIV-1 protection, formazan growth assay. The assay is described as follows: NCI AIDS Antiviral Assay. As to conditions: for IC50: measured here: growth of uninfected CEM cells. Summed up:
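Category rules: moderately active means at least 50% protection on retest, and confirmed active means 100% protection reproducibly. The underlying data came from a formazan growth assay in HIV-1-infected CEM cells.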

Our source for the EC50, IC50 and outcome values is PubChem BioAssay AID179 (DTP/NCI, 2004).

SMILES strings stand for the structures. Activity calls are given as the source filed them.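 Rule for the calls: active = compounds giving half or more protection of infected cells from virus-caused growth loss, again on retest; inactive = the rest.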 A value given as a limit tells only on which side of the number the result lay.

Take `CC(C)(C)c1ccc(O)c(C(O)c2cccnc2)c1` (stereo not given): the EC50 (commonly the midpoint of the concentration-response curve) is greater than 200 µM and the IC50 (commonly the concentration at which inhibition is half-maximal) was 61.7 µM.
On to `CCCNCCCC(NC(C)=O)C(=O)NCc1ccccc1` (stereo not given), for which the EC50 was greater than 813 µM and the IC50 is greater than 813 µM.
Take `CCOc1ccc(NC(=S)N/C=C(/C#N)C(N)=O)cc1`: the EC50 is greater than 200 µM and the half-inhibitory concentration (IC50) was found to be 158 µM.
For the compound `COc1nc(N)c(N(C(C)=O)C(C)=O)c(=O)[nH]1`, the result was inactive.
In the case of `CCOC(=O)/C=C/SCCNC(=O)OCC`, the EC50 was greater than 204 µM and the IC50 was found to be 120 µM.
On to `CC(C#N)N(C(C)C#N)N(C)C` (stereo not given), for which the result was inactive.
`CC(=O)NNc1nc(C)c(C(=O)NNC(=O)C(=O)Nc2ccc(Cl)c([N+](=O)[O-])c2)s1`: the EC50 was greater than 288 µM and the IC50 turned out to be 107 µM.
In the case of `O=C1C(=Cc2cccs2)C(=O)N(CCc2ccccc2)S(=O)(=O)N1CCc1ccccc1`, the EC50 was greater than 8.13 µM and the concentration for half-maximal inhibition (IC50) is greater than 8.13 µM.
Consider `O=C1CC2C(=O)N(Cc3ccccc3)C1C(S(=O)(=O)c1ccccc1)C2S(=O)(=O)c1ccccc1` (stereo not given), for which the result was inactive.
Consider `O=S(=O)(Nc1nc2ccccc2nc1Nc1cccc2ccccc12)c1ccccc1`, for which the EC50 is greater than 200 µM and the IC50 was determined as 15.8 µM.
For `CCOC(=O)/C(=C/c1ccc(OC)cc1)P(=O)(OCC)OCC`, in that order: greater than 380 µM and 20.4 µM.
`COc1ccc(CNc2cnc3cc(N)ccc3n2)cc1OC`: the EC50 is greater than 115 µM and the 50% inhibitory concentration (IC50) was greater than 115 µM.
As to `CC(C)O/C=C1\CCc2ccccc2C1=O`, the EC50 was greater than 200 µM and the IC50 worked out at 36.3 µM.
For the compound `COc1cc(C2C3=C(COC3=O)Oc3cc4c(cc32)OCO4)cc(OC)c1OC(C)=O` (stereo not given), the EC50 is greater than 0.2 µM and the half-inhibitory concentration (IC50) was found to be 0.0324 µM.
For `Cc1cc(O)c(/C=N/C(=S)NCCc2ccccc2)c(=O)o1`, in that order: greater than 200 µM and greater than 200 µM.
With `O=C1C[C@H](c2ccccc2)C2(C(=O)c3ccccc3C2=O)[C@H](c2ccccc2)C1`, the EC50 is greater than 102 µM and the IC50 was greater than 102 µM.
With `CCOC(=O)c1c(N2CCOCC2)[nH]c(=O)c(C(c2cccs2)c2c(O)c(C(=O)OCC)c(N3CCOCC3)[nH]c2=O)c1O`, the EC50 was greater than 200 µM and the half-inhibitory concentration (IC50) was greater than 200 µM.
Turning to `CN(C)CC/[N+]([O-])=C(/c1ccccc1)C12CC3CC(CC(C3)C1)C2`, the outcome was inactive.
For `Cc1nc(N(CCO)CCO)nc2c1C(=O)Nc1ccccc1N2`, the EC50 is greater than 200 µM and the IC50 was determined as 42.7 µM.
For `CC1=NOC(=O)/C1=C/c1cccc2ccccc12`, in that order: greater than 1050 µM and greater than 1050 µM.
As for `CC(C)(C)N=C(N)NC#N`, the EC50 is greater than 200 µM and the 50% inhibitory concentration (IC50) was greater than 200 µM.
Consider `COc1cc(NCC(C#N)C#N)ccc1N=Nc1ccc(Cl)cc1`, for which the EC50 was greater than 21.4 µM and the IC50 was greater than 21.4 µM.
Consider `CSC1=NN(C)C2(CCCCC2)C(=O)N1`, for which the EC50 was 13.8 µM and the concentration for half-maximal inhibition (IC50) worked out at 575 µM.
For `COn1c2ccccc2c2c1cc1ccccc1[n+]2[O-]`, the EC50 is greater than 67.6 µM and the 50% inhibitory concentration (IC50) stood at 31.6 µM.
For the compound `Cc1ccc2c(c1)NC(=O)CC(c1ccccc1)=N2`, the EC50 is greater than 200 µM and the half-inhibitory concentration (IC50) came out at 115 µM.
For the compound `O=C1CCCN(Cc2ccccc2)C(=O)N1`, the EC50 was greater than 1150 µM and the concentration for half-maximal inhibition (IC50) is greater than 1150 µM.
For `Cc1ccc(S(=O)(=O)OC2C(O)C(O)OC2C(c2cc(O)c3c(c2O)C(=O)c2ccccc2C3=O)c2cc(O)c3c(c2O)C(=O)c2ccccc2C3=O)cc1` (stereo not given), the EC50 was greater than 200 µM and the half-maximal inhibitory concentration (IC50) amounted to 14.5 µM.
In the case of `O=C(/C=C/c1ccsc1)c1ccc(Cl)s1`, the EC50 was greater than 200 µM.
Turning to `O=C(CC1NCCS1)OCc1ccc(Br)cc1` (stereo not given), the EC50 was 19.1 µM and the half-inhibitory concentration (IC50) turned out to be 81.3 µM.
For `CC1=NN(C(=O)c2ccc(Cl)cc2)C(=O)/C1=C/c1cccc(O)c1`, in that order: greater than 7.94 µM and greater than 7.94 µM.
